Results as given in paper PMC4367962 (Nature, 2014).

Tests used:
[1] = system: mir-155^LSLtTA lymphoma subcutaneous flank tumors; experiment: mir-155^LSLtTA lymphoma subcutaneous flank tumor model in nude mice; assay type: in vivo; conditions: early endpoint study; n = 3, pHLIP-anti155 n = 4
[2] = mouse, in vivo, iv

Molecule	Onset of splenomegaly (spleen mass) [1]	Clearance route [2]	Kidney distribution [2]
C[C@H]1c2cccc(O)c2C(=O)C2=C(O)[C@]3(O)C(=O)C(C(N)=O)=C(O)[C@@H](N(C)C)[C@@H]3[C@@H](O)[C@@H]21 [DOX, doxycycline]	reduced the onset of splenomegaly	–	–
AAEQNPIYWARYADWLFTTPLLLLDLALLVDADEGT(CNPys)G [pHLIP]	–	much of the peptide is cleared by renal excretion	shows kidney targeting
